{"source": "BindingDB's records for doi:10.1021/jm020270n", "about": "(Dainippon Pharmaceutical, 2003)", "target": "D(2) dopamine receptor (Rattus norvegicus, UniProt P61169)", "sequence (P61169 whole entry)": "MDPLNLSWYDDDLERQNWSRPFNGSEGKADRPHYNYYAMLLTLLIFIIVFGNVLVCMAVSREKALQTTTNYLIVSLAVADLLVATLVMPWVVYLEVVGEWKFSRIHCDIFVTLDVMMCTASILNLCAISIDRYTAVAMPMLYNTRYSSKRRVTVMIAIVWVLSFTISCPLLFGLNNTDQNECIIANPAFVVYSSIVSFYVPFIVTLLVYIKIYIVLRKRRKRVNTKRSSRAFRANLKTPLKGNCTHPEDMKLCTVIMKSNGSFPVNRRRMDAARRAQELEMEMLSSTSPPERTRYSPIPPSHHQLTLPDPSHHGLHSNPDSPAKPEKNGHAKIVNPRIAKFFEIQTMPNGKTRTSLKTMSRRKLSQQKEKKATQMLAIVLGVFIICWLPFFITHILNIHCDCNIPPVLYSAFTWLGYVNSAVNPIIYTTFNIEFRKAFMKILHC", "assay": "Affinity towards Dopamine receptor D2 in rat striatum using [3H]spiperone as radioligand", "data": [{"smiles": "COc1cc(N)c(Cl)cc1C(=O)NC1CC2CCC(C1)N2C", "note": "(stereo unspecified) [4-amino-5-chloro-2-methoxy-N-(8-methyl-8-azabicyclo[3.2.1]octan-3-yl)benzamide]", "values": [{"measurement": "Ki", "value": "> 1000", "unit": "nM"}]}]}
